Assay results reported in the NIST ThermoML archive (doi:10.1016/j.fluid.2013.02.005).

Key:
[1] = for surface tension liquid-gas: Maximal bubble pressure; for mass density: 298.15 K, 101.33 kPa, Vibrating tube method; for mass density / vapor or sublimation pressure: Liquid; for vapor or sublimation pressure: Ebulliometric method (Recirculating still)
[2] = Boiling temperature at pressure P; conditions: 101.33 kPa; Liquid; Ebulliometric method (Recirculating still)
[3] = refractive index (Na D-line) (dimensionless); conditions: 298.15 K; 101.33 kPa; Liquid; Standard Abbe refractometry
[4] = xn = mol fraction of the nth substance listed; conditions: Maximal bubble pressure

CC(C)OC(C)C [diisopropyl ether]
[1]
Conditions	surface tension liquid-gas [mN/m]	vapor or sublimation pressure [kPa]
283.15 K	18.88	–
303.15 K	16.7	–
307.64 K	–	30.01
311.53 K	–	35.01
314.98 K	–	40.01
318.08 K	–	45.01
320.94 K	–	50.01
321.03 K	–	50
323.56 K	–	55.01
326 K	–	60.01
328.29 K	–	65.01
330.15 K	13.88	–
330.45 K	–	70.01
332.48 K	–	75.01
332.65 K	–	75
334.41 K	–	80.01
336.23 K	–	85.01
339.57 K	–	94
339.65 K	–	95.01
341.52 K	–	100.89

Conditions	Boiling temperature at pressure P [°C]	mass density [kg/m3]	refractive index
[1]	–	718.75	–
[2]	68.52	–	–
[3]	–	–	1.36652

CC(C)OC(C)C [diisopropyl ether] + Cc1ccc(C)o1
[4], x1 = 1
Conditions	surface tension liquid-gas [mN/m]
283.15 K	18.88
330.15 K	13.88

Cc1ccc(C)o1 [2,5-dimethylfuran] + CC(C)OC(C)C
surface tension liquid-gas [mN/m], [4]
Conditions	283.15 K	330.15 K
x2 = 0	26.34	20.58
x2 = 0.067	24.79	–
x2 = 0.112	24.27	–
x2 = 0.153	–	19.28
x2 = 0.192	–	18.93
x2 = 0.234	23.31	–
x2 = 0.245	–	18.31
x2 = 0.323	22.56	–
x2 = 0.342	–	17.66
x2 = 0.42	21.87	–
x2 = 0.434	–	17.01
x2 = 0.52	21.31	–
x2 = 0.543	–	16.48
x2 = 0.626	20.86	–
x2 = 0.664	–	15.79
x2 = 0.782	–	15.16
x2 = 0.897	–	14.65

Cc1ccc(C)o1 [2,5-dimethylfuran]
[1]
Conditions	surface tension liquid-gas [mN/m]	vapor or sublimation pressure [kPa]
283.15 K	26.34	–
303.15 K	24.05	–
330.15 K	20.58	–
345.24 K	–	50
357.21 K	–	75
364.37 K	–	94

Conditions	Boiling temperature at pressure P [°C]	mass density [kg/m3]	refractive index
[1]	–	895.63	–
[2]	93.68	–	–
[3]	–	–	1.44012
